{"source": "ChEMBL document CHEMBL3885861", "about": "“Open TG-GATES”", "organism": "Rattus norvegicus", "assay": "Open TG-GATES - Regimen: Daily Repeat", "assay_type": "toxicity, organism-based, Sprague-Dawley", "set-up": "regimen Daily Repeat, gender Male, age 6 weeks", "conditions": "in vivo, po, 100 mg/kg, route gavage, dose level Low; for APTT / Bas / Eos / Fbg / Hb / Ht / Lym / MCH / MCHC / MCV / Mono / Neu / PT / Plat / RBC / Ret / WBC: tissue Blood", "key": {"[1]": {"conditions": "72 h, tissue Kidney, time 3 day"}, "[2]": {"conditions": "72 h, tissue Plasma, time 3 day"}}}
{"smiles": "CCOc1ccc(NC(=O)CC(C)O)cc1", "note": "(stereo unspecified) [BUCETIN]", "values": [{"measurement": "TERMINAL_BW", "setting": "72 h, time 3 day", "value": 249.8, "unit": "g"}, {"measurement": "APTT", "setting": "72 h, time 3 day", "value": 17.5, "unit": "s"}, {"measurement": "Bas", "setting": "72 h, time 3 day", "value": 0, "unit": "%"}, {"measurement": "Eos", "setting": "72 h, time 3 day", "value": 0.8, "unit": "%"}, {"measurement": "Fbg", "setting": "72 h, time 3 day", "value": 309.6, "unit": "mg/dL"}, {"measurement": "Hb", "setting": "72 h, time 3 day", "value": 13.8, "unit": "g/dL"}, {"measurement": "Ht", "setting": "72 h, time 3 day", "value": 41.5, "unit": "%"}, {"measurement": "Lym", "setting": "72 h, time 3 day", "value": 76.4, "unit": "%"}, {"measurement": "MCH", "setting": "72 h, time 3 day", "value": 21.2, "unit": "pg"}, {"measurement": "MCHC", "setting": "72 h, time 3 day", "value": 33.2, "unit": "%"}, {"measurement": "MCV", "setting": "72 h, time 3 day", "value": 63.9, "unit": "fL"}, {"measurement": "Mono", "setting": "72 h, time 3 day", "value": 3.4, "unit": "%"}, {"measurement": "Neu", "setting": "72 h, time 3 day", "value": 18.8, "unit": "%"}, {"measurement": "PT", "setting": "72 h, time 3 day", "value": 14.1, "unit": "s"}, {"measurement": "Plat", "setting": "72 h, time 3 day", "value": 126.2, "unit": "x10_4/uL"}, {"measurement": "RBC", "setting": "72 h, time 3 day", "value": 650.6, "unit": "x10_4/ul"}, {"measurement": "Ret", "setting": "72 h, time 3 day", "value": 6.9, "unit": "%"}, {"measurement": "WBC", "setting": "72 h, time 3 day", "value": 79.2, "unit": "x10_2/uL"}, {"measurement": "KIDNEY_L", "setting": "[1]", "value": 1, "unit": "g"}, {"measurement": "KIDNEY_R", "setting": "[1]", "value": 1.1, "unit": "g"}, {"measurement": "KIDNEY_TOTAL", "setting": "[1]", "value": 2.1, "unit": "g"}, {"measurement": "LIVER", "setting": "72 h, tissue Liver, time 3 day", "value": 12.1, "unit": "g"}, {"measurement": "A/G", "setting": "[2]", "value": 0.9}, {"measurement": "ALP", "setting": "[2]", "value": 1621.2, "unit": "IU/L"}, {"measurement": "ALT", "setting": "[2]", "value": 35.2, "unit": "IU/L"}, {"measurement": "AST", "setting": "[2]", "value": 62.4, "unit": "IU/L"}, {"measurement": "BUN", "setting": "[2]", "value": 14.4, "unit": "mg/dL"}, {"measurement": "CRE", "setting": "[2]", "value": 0.2, "unit": "mg/dL"}, {"measurement": "Ca", "setting": "[2]", "value": 11, "unit": "mg/dL"}, {"measurement": "Cl", "setting": "[2]", "value": 105.6, "unit": "meq/L"}, {"measurement": "DBIL", "setting": "[2]", "value": 0.02, "unit": "mg/dL"}, {"measurement": "GLC", "setting": "[2]", "value": 188.4, "unit": "mg/dL"}, {"measurement": "IP", "setting": "[2]", "value": 7.6, "unit": "mg/dL"}, {"measurement": "K", "setting": "[2]", "value": 4.2, "unit": "meq/L"}, {"measurement": "LDH", "setting": "[2]", "value": 76.6, "unit": "IU/L"}, {"measurement": "Na", "setting": "[2]", "value": 143, "unit": "meq/L"}, {"measurement": "PL", "setting": "[2]", "value": 163.8, "unit": "mg/dL"}, {"measurement": "RALB", "setting": "[2]", "value": 2.7, "unit": "g/dL"}, {"measurement": "TBIL", "setting": "[2]", "value": 0.044, "unit": "mg/dL"}, {"measurement": "TC", "setting": "[2]", "value": 82, "unit": "mg/dL"}, {"measurement": "TG", "setting": "[2]", "value": 116.4, "unit": "mg/dL"}, {"measurement": "TP", "setting": "[2]", "value": 5.9, "unit": "g/dL"}, {"measurement": "gamma-GTP", "setting": "[2]", "value": 1, "unit": "IU/L"}, {"measurement": "TERMINAL_BW", "setting": "[…], time 7 day", "value": 303, "unit": "g"}, {"measurement": "TERMINAL_BW", "setting": "[…], time 14 day", "value": 338.2, "unit": "g"}, {"measurement": "TERMINAL_BW", "setting": "[…], time 28 day", "value": 405.9, "unit": "g"}, {"measurement": "APTT", "setting": "[…], time 7 day", "value": 17.7, "unit": "s"}, {"measurement": "Bas", "setting": "[…], time 7 day", "value": 0, "unit": "%"}, {"measurement": "Eos", "setting": "[…], time 7 day", "value": 0.8, "unit": "%"}, {"measurement": "Fbg", "setting": "[…], time 7 day", "value": 276.6, "unit": "mg/dL"}, {"measurement": "Hb", "setting": "[…], time 7 day", "value": 13.4, "unit": "g/dL"}, {"measurement": "Ht", "setting": "[…], time 7 day", "value": 40.1, "unit": "%"}, {"measurement": "Lym", "setting": "[…], time 7 day", "value": 77.8, "unit": "%"}, {"measurement": "MCH", "setting": "[…], time 7 day", "value": 20.5, "unit": "pg"}, {"measurement": "MCHC", "setting": "[…], time 7 day", "value": 33.5, "unit": "%"}, {"measurement": "MCV", "setting": "[…], time 7 day", "value": 61.2, "unit": "fL"}, {"measurement": "Mono", "setting": "[…], time 7 day", "value": 2.8, "unit": "%"}, {"measurement": "Neu", "setting": "[…], time 7 day", "value": 17.6, "unit": "%"}, {"measurement": "PT", "setting": "[…], time 7 day", "value": 14, "unit": "s"}, {"measurement": "Plat", "setting": "[…], time 7 day", "value": 121.8, "unit": "x10_4/uL"}, {"measurement": "RBC", "setting": "[…], time 7 day", "value": 655.4, "unit": "x10_4/ul"}, {"measurement": "Ret", "setting": "[…], time 7 day", "value": 5.8, "unit": "%"}, {"measurement": "WBC", "setting": "[…], time 7 day", "value": 116.6, "unit": "x10_2/uL"}, {"measurement": "APTT", "setting": "[…], time 14 day", "value": 19.2, "unit": "s"}, {"measurement": "Bas", "setting": "[…], time 14 day", "value": 0, "unit": "%"}, {"measurement": "Eos", "setting": "[…], time 14 day", "value": 0.8, "unit": "%"}, {"measurement": "Fbg", "setting": "[…], time 14 day", "value": 287.8, "unit": "mg/dL"}, {"measurement": "Hb", "setting": "[…], time 14 day", "value": 14.6, "unit": "g/dL"}, {"measurement": "Ht", "setting": "[…], time 14 day", "value": 43.2, "unit": "%"}, {"measurement": "Lym", "setting": "[…], time 14 day", "value": 74.6, "unit": "%"}, {"measurement": "MCH", "setting": "[…], time 14 day", "value": 20.1, "unit": "pg"}, {"measurement": "MCHC", "setting": "[…], time 14 day", "value": 33.9, "unit": "%"}, {"measurement": "MCV", "setting": "[…], time 14 day", "value": 59.3, "unit": "fL"}, {"measurement": "Mono", "setting": "[…], time 14 day", "value": 2.4, "unit": "%"}, {"measurement": "Neu", "setting": "[…], time 14 day", "value": 21.4, "unit": "%"}, {"measurement": "PT", "setting": "[…], time 14 day", "value": 13.9, "unit": "s"}, {"measurement": "Plat", "setting": "[…], time 14 day", "value": 116.5, "unit": "x10_4/uL"}, {"measurement": "RBC", "setting": "[…], time 14 day", "value": 729.2, "unit": "x10_4/ul"}, {"measurement": "Ret", "setting": "[…], time 14 day", "value": 4.1, "unit": "%"}, {"measurement": "WBC", "setting": "[…], time 14 day", "value": 86.9, "unit": "x10_2/uL"}, {"measurement": "APTT", "setting": "[…], time 28 day", "value": 17.9, "unit": "s"}, {"measurement": "Bas", "setting": "[…], time 28 day", "value": 0.2, "unit": "%"}, {"measurement": "Eos", "setting": "[…], time 28 day", "value": 1, "unit": "%"}, {"measurement": "Fbg", "setting": "[…], time 28 day", "value": 280.4, "unit": "mg/dL"}, {"measurement": "Hb", "setting": "[…], time 28 day", "value": 15.6, "unit": "g/dL"}, {"measurement": "Ht", "setting": "[…], time 28 day", "value": 44.9, "unit": "%"}]}
